Here are results for four compounds from patent US20250222066A1, “COMPOSITIONS AND METHODS OF TREATING, PREVENTING OR INHIBITING A FACULTATIVE ANAEROBE INFECTION” (UNIVERSITY OF UTAH RESEARCH FOUNDATION, priority 2022, published 2025).

The subject of one experiment is S. aureus. As to the kind of experiment: Minimum inhibitory concentration (MIC) assay, planktonic bacteria. It counts as cell-based. The settings on record: for MIC: Staphylococcus aureus. The source says: Shortcomings of clinical antibiotic susceptibility assays. The antibiotic-susceptibility assays used to guide clinical treatment and prophylaxis rely on actively-dividing planktonic bacteria (Williams, D. L. & Costerton, J. W. J Biomed Mat Res B 100, 1163-1169 (2011)). Among the assays performed by clinical reference laboratories are the minimum inhibitory concentration (MIC), and disk diffusion (Kirby-Bauer) assays. The ubiquity of these assays is owed to the fact that they are high throughput, relatively quick to perform, repeatable, and have short turnaround times. They inform clinicians regarding which antibiotic are applicable for a given infection from a simple site swab, blood, or aspirate sample. […] Thus, when a compound, such as metronidazole performs poorly in an MIC assay, a physician would be thoroughly dissuaded from using it. Likewise, in drug-development, a high MIC value would exclude potentially useful anti-biofilm agents from candidate drug libraries. […] Using orthodox clinical methodology, there would be no basis to administer metronidazole in the treatment of a S. aureus-related infections, despite its exceptional efficacy against bacterial biofilms of the same isolates. The MIC assay fails to provide any information about susceptibility profiles of bacteria that reside in the biofilm phenotype.
(§1) For comparison to these biofilm tests with adjunctive metronidazole, the MIC was determined for each organism and each compound tested.

Another experiment relates to A. baumannii. The description is as above. Type of experiment: cell-based. The settings on record: for 1:1 combinations MIC is the sum of both compounds. The procedure:
as §1

The next experiment relates to MRSA USA300. Described as above. It counts as cell-based. To be noted: for 1:1 combinations MIC is the sum of both compounds; for MIC: Staphylococcus aureus. Here is the method:
as §1

In another experiment the test system is P. aeruginosa. The experiment is described as above. It counts as cell-based. To be noted: for 1:1 combinations MIC is the sum of both compounds; for MIC: Pseudomonas aeruginosa. Here is the method:
as §1

The next experiment has as its system S. epidermidis. Described as above. It counts as cell-based, Staphylococcus epidermidis. To be noted: for MIC: Staphylococcus epidermidis, for 1:1 combinations MIC is the sum of both compounds. The procedure: (§2) Three groups of 5 coupons/samples (n=5) were placed into 2 ml treatments either containing 0.5-1 mg/ml of gentamicin, metronidazole, or combinations thereof (in CAMHB) and incubated for 24 h at 37° C. Importantly, the total antibiotic concentration (mg/ml) was fixed for each sample to enable assessment of compound synergy.
as §1

The next experiment deals with E. coli. Described as above. It counts as cell-based, Escherichia coli. The settings on record: for 1:1 combinations MIC is the sum of both compounds; for MIC: Escherichia coli. Here is the method: as §1
The subject of another experiment is K. pneumoniae. The experiment is described as above. It counts as cell-based, Klebsiella pneumoniae. The settings on record: for MIC: Klebsiella pneumoniae. The procedure:
as §1

In experiment [1] the test system is S. aureus ATCC 6538 biofilms. Kind of experiment: CDC biofilm reactor coupons, 24 h antibiotic treatment, bioburden by serial dilution plating. Type of experiment: cell-based. The procedure: (§3) For determining the broad-spectrum utility of metronidazole, respective bacterial species were grown into stationary biofilms using a 2- or 3-day species-specific growth protocol in a CDC biofilm reactor on standard 0.5 in polycarbonate coupons. Each reactor holds up to 24 coupons/samples with adherent biofilms. Bacterial bioburden, represented as colony forming units (CFUs), from five reactor samples/coupons (n=5) were quantified by first dispersing the bacterial biofilms in 2 ml of PBS by standardized vortex-sonication technique and serial-dilution plating. Importantly, this quantification technique provides bioburden data with logarithmic sensitivity. […] The gray shaded regions represent standard deviations.
as §2
After the 24 h treatment, the bacteria adhered to coupons were quantified by rinsing the samples very gently in excess PBS followed by vortexing and sonicating to disperse the biofilm in 2 ml PBS and subsequent serial-dilution plating. The bioburden of the adhered bacteria is represented by the blue bars in FIG. 1. […] Broth bioburden is represented by the red bars in FIG. 1.
Twelve hypoxia activated prodrugs from three categories were tested: nitroimidazoles (same class as metronidazole), nitrofurans, and anti-tumor agents.
To test each compound, the contents of an entire CDC-biofilm reactor (24 coupons/biofilm samples) were used (see FIG. 2 and FIG. 3). […] Using the methods described above, 4 reactor samples/coupons served as reactor controls. The remaining 20 samples/coupons were split into 4 treatment groups of 5 samples each (n=5).
For testing against S. aureus biofilms, the compounds were prepared at a concentration of 1 mM in CAMHB; coupons were treated in 2 ml for 24 h. Compounds were intentionally prepared in units of molarity rather than the more common weight/volume ratios of clinicians.
This choice was made for two reasons.
Two of the treatment groups were the same for each test: one in 1 mM nafcillin (a β-lactam antibiotic) and a second in 1 mM gentamicin. […] For comparison for most compounds 1 mM ranges from ˜0.15-0.5 mg/ml, 1 or 2 Log 2 dilutions below tests in FIG. 1. […] The other compounds were tested at the same concentrations.
Quantification of the post-treatment residual bioburden was performed by dispersing biofilm bacteria into the 2 ml treatments with its constituent bacteria by vortexing, and sonicating. […] The pelleted bacteria were resuspended and measured by the serial dilution plating technique. Thus, the values presented in FIGS. 2, 3 and 4 represent the cumulative change in bioburden from the surface-attached biofilms and bacteria in the treatments.

The test system of experiment [2] is biofilms of a range of Gram-negative and Gram-positive organisms. As to the kind of experiment: CDC biofilm reactor test of metronidazole combinations across species (FIG. 1). To be noted: paired with gentamicin or levofloxacin (S. epidermidis); 0.5-1 mg/ml total, 24 h. It counts as cell-based. Here is the method:
as §3, §2
After the 24 h treatment, the bacteria adhered to coupons were quantified by rinsing the samples very gently in excess PBS followed by vortexing and sonicating to disperse the biofilm in 2 ml PBS and subsequent serial-dilution plating. The bioburden of the adhered bacteria is represented by the blue bars in FIG. 1. […]

The test system of a further experiment is S. aureus biofilm. As to the kind of experiment: Live/dead imaging of metronidazole-treated biofilm. Type of experiment: cell-based. To be noted: 0.5 mg/ml metronidazole, 24 h. The source says:
FIGS. 9A-B show biofilm histochemical staining. […] Staining of pimonidazole adducts in pimonidazole-treated S. aureus biofilms is localized in the core; the deepest location (darker brown region indicated by arrow) adjacent to the collagen substrate. Regions where oxygen tension is insufficiently low for pimonidazole adduct formation is shown (arrow head; lighter brown region). […] Viable bacteria (green) resided on the biofilm surface, where oxygen and nutrients were readily available.
Next, a time-lapse confocal imaging paired with live-dead staining was used to observe the location of metronidazole-induced cell death.

In another experiment the test system is S. aureus biofilms. Kind of experiment: Radical-scavenger edaravone protection of biofilms from metronidazole (FIG. 6). Type of experiment: cell-based. The settings on record: 0-2 mg/ml edaravone with 0.25 mg/ml nafcillin and 4 mg/ml metronidazole, 24 h. Here is the method: . S. aureus biofilms grown using a CDC biofilm reactor and treated with 2 ml solutions of CAMHB in 0.25 mg/ml nafcillin (serving as a bacteriostatic agent) and 4 mg/ml metronidazole (with herein established activity against biofilms) and the indicated concentration of the potent radical-scavenger edaravone (0-2 mg/ml). After treatment, the biofilm coupons were removed from the treatment broth, rinsed and the bioburden quantified using a method of vortexing, sonicating, and serial dilution plating.
In one experiment, S. aureus biofilms were subjected to a bacteriostatic solution of nafcillin (0.25 mg/ml) and an aggressive dose of metronidazole (4 mg/ml). The coupons were divided evenly into 5 groups (n=8) which were treated with serial concentrations of the potent radical scavenger edaravone ranging from 0-2 mg/ml. […]. In a second experiment, biofilms were treated with a small sublethal dose of the nitroimidazole pimonidazole (0.06 mg/ml). Like the other nitroimidazoles, pimonidazole is reductively activated in hypoxic cells by a nitro-reductase enzyme. In hypoxia, the reduced compound indiscriminately forms adducts with cellular components including adducts with thiol groups which can be recognized with a primary antibody by immunohistochemical staining (FIG. 5A and FIG. 9A) (Masaki, Y. et al. PLOS One 11, e0161639 (2016)). […]

In experiment [3] the test system is S. aureus ATCC 6538 biofilms. As to the kind of experiment: Hypoxyprobe immunohistochemical staining of pimonidazole adducts in biofilms. It counts as cell-based. To be noted: 0.06 mg/ml pimonidazole, 5 h. The source says:
Further, the Hypoxyprobe™ immunohistochemistry kit was used to identify regions of the biofilm that might be hypoxic, and to identify regions with nitro-reductase activity. At the core of the Hypoxyprobe™ kit is the use of the nitroimidazole pimonidazole; it is used to treat, usually animal tissues, but in this case bacterial tissues (biofilms) while in homeostasis prior to fixation, embedment, sectioning, and staining (see structures FIGS. 5E-F). The nitro group on pimonidazole, like that on metronidazole, is reductively activated in hypoxic mammalian tissues by reaction with catalytic nitro-reductase enzymes; it then forms indiscriminate adducts with inter-cellular thiol groups. In the presence of oxygen, the reduced nitro group in pimonidazole (and metronidazole) rapidly reacts with oxygen thereby cycling back to the parent compound. The Hypoxyprobe™ kit contains a primary antibody against these intercellular pimonidazole adducts. Successful immunohistochemical staining of pimonidazole adducts in the biofilm core indicates two important things. First, it would show nitro-reductase activity in the biofilm, and second it would be direct evidence for […] oxygen tension for a nitroimidazole prodrug radical to persist and react with critical cellular components. […]

Setting [4] is: aerobic, for 1:1 combinations MIC is the sum of both compounds, read-out: Aerobic MIC.
The mark [5] stands for this setting: anaerobic, for 1:1 combinations MIC is the sum of both compounds, read-out: Anaerobic MIC.
The mark [6] stands for this setting: anaerobic, read-out: Anaerobic MIC.
The mark [7] stands for this setting: aerobic, for 1:1 combinations MIC is the sum of both compounds.
Setting [8] is: anaerobic, for 1:1 combinations MIC is the sum of both compounds.

“Also recorded” adds a separate entry of the source. Read-outs that look alike come from different tables or passages of the source. Some results are limits rather than exact numbers.

Regarding `Cc1ncc([N+](=O)[O-])n1CCO` [Metronidazole, metronidazole], the “effect against planktonic bacteria as indicated by the MIC” value in the experiment on S. aureus (FIG. 7 legend) is recorded as “little effect against planktonic bacteria”. Besides, the MIC was 2500 µg/mL in the experiment on S. aureus (setting [4]); more than 2500 µg/mL in the experiment on S. aureus (setting [5]); more than 2500 µg/mL in the experiment with S. aureus (isolate used in biofilm tests, read-out: MIC against S. aureus); more than 2500 µg/mL in the experiment on A. baumannii (Acinetobacter baumannii, aerobic); 1250 µg/mL in the experiment on MRSA USA300 (aerobic, read-out: Aerobic MIC); 1250 µg/mL with MRSA USA300 (setting [6]). Moreover, the MIC in the experiment with P. aeruginosa (aerobic, read-out: Aerobic MIC) is more than 2500 µg/mL; with P. aeruginosa (setting [6]), more than 2500 µg/mL; in the experiment on S. epidermidis (aerobic, read-out: Aerobic MIC) it was 312 µg/mL; in the experiment with S. epidermidis (setting [6]), 625 µg/mL; in the experiment on E. coli (aerobic, read-out: Aerobic MIC) it was 1250 µg/mL; in the experiment on E. coli (setting [6]), 156 µg/mL. In addition, the MIC was more than 2500 µg/mL in the experiment on K. pneumoniae (setting [4]) and 1250 µg/mL with K. pneumoniae (setting [5]). In the experiment on K. pneumoniae (log-phase planktonic bacteria), the “reduction in MIC, anaerobic versus aerobic” value was “two”. Also, the antibiofilm activity entry in [1] (24 h treatment, FIG. 1 and FIG. 7) was “much greater antibiofilm activity compared to traditional antibiotics; also recorded: graded concentration-dependent effect against biofilms; also recorded: killed the otherwise difficult-to-kill persister cells embedded within the biofilm”. For the same compound, in experiment [2], the “synergistic kill against biofilms” value is reported as “strong synergistic kill”. Also, in the experiment on S. aureus biofilm, the “location of dead and viable bacteria by live/dead staining” value is “an abundance of dead and dying bacteria in the biofilm core contrasted with viable bacteria on the biofilm surface; also recorded: Dead cells (red) resided deep within the biofilm core”.

For `CC1=NN(c2ccccc2)C(=O)C1` [edaravone], the “effect on the killing of biofilms by metronidazole” value with S. aureus biofilms is listed as “neutralized the killing-effect of metronidazole in a dose dependent manner; also recorded: proportionally negates the killing power of metronidazole; also recorded: proportionally negate killing effects of metronidazole”.

Take `O=[N+]([O-])c1nccn1CC(O)CN1CCCCC1` (stereo not drawn) [pimonidazole]: the “location of pimonidazole adducts (nitro-reductase activity, hypoxia)” value in [3] was “adducts banded throughout the deepest parts of the biofilm core”.

Regarding gentamicin, the “Aerobic MIC” value in the experiment on S. aureus (setting [7]) came to 1 µg/mL; with A. baumannii it was 2 µg/mL; in the experiment on MRSA USA300 (aerobic), 2 µg/mL; in the experiment on P. aeruginosa (aerobic), 2 µg/mL; in the experiment with E. coli (aerobic) it was 0.5 µg/mL; in the experiment with K. pneumoniae (setting [7]) it was 2 µg/mL. The “Anaerobic MIC” value with S. aureus (setting [8]) amounted to 8 µg/mL; in the experiment on MRSA USA300 (anaerobic) it was 16 µg/mL; with P. aeruginosa (anaerobic), 2 µg/mL; in the experiment on E. coli (anaerobic) it was 4 µg/mL; in the experiment with K. pneumoniae (setting [8]), 4 µg/mL. Besides, in the experiment on S. aureus (isolate used in biofilm tests), the “MIC against S. aureus” value was 1 µg/mL. The “resistance of the isolate” value in the experiment with S. epidermidis (isolate used in FIG. 1) is “complete resistance”. Also, the “synergy of the companion antibiotic with metronidazole against biofilms” value in experiment [1] (24 h treatment) is given as “synergistic; also recorded: considerably strengthened; also recorded: strong synergy”. Further, the eradication of biofilms result in experiment [1] (concentrations over 60,000 X the MIC, 6,000 X the nephrotoxic and ototoxic thresholds, 25-50 X the cytotoxic limit) is listed as “failed to eradicate”.
